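96-well plates; 48 h exposure; 5 concentrations. Endpoints by linear interpolation between flanking doses. Not reached: highest tested concentration assigned. TGI: total growth inhibition.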
Key:
Assay in all cases: DTP human tumour cell line panel, 48 h
RPMI-8226 leukemia = tested on: RPMI-8226 leukemia
MOLT-4 leukemia = tested on: MOLT-4 leukemia
HL-60(TB) leukemia = tested on: HL-60(TB) leukemia
UACC-257 melanoma = tested on: UACC-257 melanoma
XF 498 CNS = tested on: XF 498 CNS
RXF-631 renal = tested on: RXF-631 renal
KM20L2 colon = tested on: KM20L2 colon
CAKI-1 renal = tested on: CAKI-1 renal
UO-31 renal = tested on: UO-31 renal
SF-295 CNS = tested on: SF-295 CNS
RXF 393 renal = tested on: RXF 393 renal
NCI-H460 lung = tested on: NCI-H460 lung
HCC-2998 colon = tested on: HCC-2998 colon
KM12 colon = tested on: KM12 colon
NCI-H23 lung = tested on: NCI-H23 lung
K-562 leukemia = tested on: K-562 leukemia
OVCAR-8 ovarian = tested on: OVCAR-8 ovarian
EKVX NSCLC = tested on: EKVX NSCLC
IGROV1 ovarian = tested on: IGROV1 ovarian
MALME-3M melanoma = tested on: MALME-3M melanoma
HCT-116 colon = tested on: HCT-116 colon
DLD-1 colon = tested on: DLD-1 colon
M19-MEL melanoma = tested on: M19-MEL melanoma
HT29 colon = tested on: HT29 colon
SK-MEL-2 melanoma = tested on: SK-MEL-2 melanoma
U251 CNS = tested on: U251 CNS
SR leukemia = tested on: SR leukemia
M14 melanoma = tested on: M14 melanoma
SN12C renal = tested on: SN12C renal
SF-539 CNS = tested on: SF-539 CNS
CCRF-CEM leukemia = tested on: CCRF-CEM leukemia
SK-MEL-28 melanoma = tested on: SK-MEL-28 melanoma
A549 NSCLC = tested on: A549 NSCLC
OVCAR-4 ovarian = tested on: OVCAR-4 ovarian
LOX IMVI melanoma = tested on: LOX IMVI melanoma
LXFL 529 NSCLC = tested on: LXFL 529 NSCLC
DMS 273 small cell lung = tested on: DMS 273 small cell lung
COLO 205 colon = tested on: COLO 205 colon
HOP-92 NSCLC = tested on: HOP-92 NSCLC
OVCAR-3 ovarian = tested on: OVCAR-3 ovarian
SNB-78 CNS = tested on: SNB-78 CNS
SW-620 colon = tested on: SW-620 colon
ACHN renal = tested on: ACHN renal
HOP-18 NSCLC = tested on: HOP-18 NSCLC
NCI-H522 lung = tested on: NCI-H522 lung
SNB-19 CNS = tested on: SNB-19 CNS
HCT-15 colon = tested on: HCT-15 colon
TK-10 renal = tested on: TK-10 renal
SK-OV-3 ovarian = tested on: SK-OV-3 ovarian
SF-268 CNS = tested on: SF-268 CNS
786-0 renal = tested on: 786-0 renal
HOP-62 NSCLC = tested on: HOP-62 NSCLC
UACC-62 melanoma = tested on: UACC-62 melanoma
SK-MEL-5 melanoma = tested on: SK-MEL-5 melanoma
DMS 114 small cell lung = tested on: DMS 114 small cell lung
SNB-75 CNS = tested on: SNB-75 CNS
OVCAR-5 ovarian = tested on: OVCAR-5 ovarian
NCI-H226 lung = tested on: NCI-H226 lung
A498 renal = tested on: A498 renal
MDA-MB-435 = tested on: MDA-MB-435
PC-3 prostate = tested on: PC-3 prostate
MCF7 breast = tested on: MCF7 breast
DU-145 prostate = tested on: DU-145 prostate
HS 578T breast = tested on: HS 578T breast
T-47D breast = tested on: T-47D breast
MDA-MB-231 breast = tested on: MDA-MB-231 breast
BT-549 breast = tested on: BT-549 breast
MDA-N = tested on: MDA-N

Structure (SMILES): Cc1nc(NC(=S)NC(=O)c2ccc(Cl)c(Cl)c2)sc1C(=O)/C=C/c1ccccc1[N+](=O)[O-]
- TGI (RPMI-8226 leukemia): > 100 µM
- TGI (MOLT-4 leukemia): 52.6 µM
- TGI (HL-60(TB) leukemia): 45.8 µM
- TGI (UACC-257 melanoma): 89.1 µM
- TGI (XF 498 CNS): 35.9 µM
- TGI (RXF-631 renal): 56 µM
- TGI (KM20L2 colon): 35.9 µM
- TGI (CAKI-1 renal): 47.3 µM
- TGI (UO-31 renal): 45.6 µM
- TGI (SF-295 CNS): 58.9 µM
- TGI (RXF 393 renal): 41 µM
- TGI (NCI-H460 lung): > 100 µM
- TGI (HCC-2998 colon): > 100 µM
- TGI (KM12 colon): 39.3 µM
- TGI (NCI-H23 lung): 44.9 µM
- TGI (K-562 leukemia): 42.2 µM
- TGI (OVCAR-8 ovarian): 63.5 µM
- TGI (EKVX NSCLC): 91.6 µM
- TGI (IGROV1 ovarian): 66.7 µM
- TGI (MALME-3M melanoma): 41.9 µM
- TGI (HCT-116 colon): 47.9 µM
- TGI (DLD-1 colon): > 100 µM
- TGI (M19-MEL melanoma): 79.7 µM
- TGI (HT29 colon): 46 µM
- TGI (SK-MEL-2 melanoma): 44.4 µM
- TGI (U251 CNS): 32.9 µM
- TGI (SR leukemia): 63.1 µM
- TGI (M14 melanoma): 51.5 µM
- TGI (SN12C renal): 61.7 µM
- TGI (SF-539 CNS): 40.5 µM
- TGI (CCRF-CEM leukemia): 73.9 µM
- TGI (SK-MEL-28 melanoma): 78.4 µM
- TGI (A549 NSCLC): 60.3 µM
- TGI (OVCAR-4 ovarian): 88.2 µM
- TGI (LOX IMVI melanoma): 34.3 µM
- TGI (LXFL 529 NSCLC): 74.3 µM
- TGI (DMS 273 small cell lung): 48.3 µM
- TGI (COLO 205 colon): 34.9 µM
- TGI (HOP-92 NSCLC): 24.2 µM
- TGI (OVCAR-3 ovarian): 51.7 µM
- TGI (SNB-78 CNS): 91.2 µM
- TGI (SW-620 colon): 41.2 µM
- TGI (ACHN renal): 67.4 µM
- TGI (HOP-18 NSCLC): 41.7 µM
- TGI (NCI-H522 lung): 33.7 µM
- TGI (SNB-19 CNS): 46.9 µM
- TGI (HCT-15 colon): 51 µM
- TGI (TK-10 renal): 71.3 µM
- TGI (SK-OV-3 ovarian): 49.7 µM
- TGI (SF-268 CNS): > 100 µM
- TGI (786-0 renal): 33.5 µM
- TGI (HOP-62 NSCLC): 47.9 µM
- TGI (UACC-62 melanoma): 28.5 µM

Structure (SMILES): CCSC(=Nc1ccccc1)SC
- TGI (SK-MEL-5 melanoma): > 100 µM
- TGI (RPMI-8226 leukemia): > 100 µM
- TGI (MOLT-4 leukemia): > 100 µM
- TGI (HL-60(TB) leukemia): > 100 µM
- TGI (UACC-257 melanoma): > 100 µM
- TGI (XF 498 CNS): > 100 µM
- TGI (RXF-631 renal): > 100 µM
- TGI (KM20L2 colon): > 100 µM
- TGI (CAKI-1 renal): > 100 µM
- TGI (DMS 114 small cell lung): > 100 µM
- TGI (UO-31 renal): > 100 µM
- TGI (SF-295 CNS): > 100 µM
- TGI (RXF 393 renal): > 100 µM
- TGI (NCI-H460 lung): > 100 µM
- TGI (HCC-2998 colon): > 100 µM
- TGI (KM12 colon): > 100 µM
- TGI (NCI-H23 lung): > 100 µM
- TGI (K-562 leukemia): > 100 µM
- TGI (OVCAR-8 ovarian): > 100 µM
- TGI (SNB-75 CNS): > 100 µM
- TGI (EKVX NSCLC): > 100 µM
- TGI (IGROV1 ovarian): > 100 µM
- TGI (MALME-3M melanoma): > 100 µM
- TGI (HCT-116 colon): > 100 µM
- TGI (DLD-1 colon): > 100 µM
- TGI (M19-MEL melanoma): > 100 µM
- TGI (HT29 colon): > 100 µM
- TGI (SK-MEL-2 melanoma): > 100 µM
- TGI (U251 CNS): > 100 µM
- TGI (M14 melanoma): > 100 µM
- TGI (SN12C renal): > 100 µM
- TGI (SF-539 CNS): > 100 µM
- TGI (CCRF-CEM leukemia): > 100 µM
- TGI (SK-MEL-28 melanoma): > 100 µM
- TGI (A549 NSCLC): > 100 µM
- TGI (OVCAR-4 ovarian): > 100 µM
- TGI (LOX IMVI melanoma): > 100 µM
- TGI (LXFL 529 NSCLC): > 100 µM
- TGI (DMS 273 small cell lung): > 100 µM
- TGI (COLO 205 colon): > 100 µM
- TGI (OVCAR-5 ovarian): > 100 µM
- TGI (HOP-92 NSCLC): > 100 µM
- TGI (OVCAR-3 ovarian): > 100 µM
- TGI (SNB-78 CNS): > 100 µM
- TGI (SW-620 colon): > 100 µM
- TGI (ACHN renal): > 100 µM
- TGI (HOP-18 NSCLC): > 100 µM
- TGI (NCI-H522 lung): > 100 µM
- TGI (NCI-H226 lung): > 100 µM
- TGI (SNB-19 CNS): > 100 µM
- TGI (HCT-15 colon): > 100 µM
- TGI (TK-10 renal): > 100 µM
- TGI (SK-OV-3 ovarian): > 100 µM
- TGI (SF-268 CNS): > 100 µM
- TGI (786-0 renal): > 100 µM
- TGI (HOP-62 NSCLC): > 100 µM
- TGI (UACC-62 melanoma): > 100 µM

Structure (SMILES): N=c1nc(N)c2cc3c(N)nc(=N)c3cc12
- TGI (SK-MEL-5 melanoma): > 100 µM
- TGI (RPMI-8226 leukemia): 23.9 µM
- TGI (MOLT-4 leukemia): > 61 µM
- TGI (HL-60(TB) leukemia): 6.78 µM
- TGI (UACC-257 melanoma): 28.1 µM
- TGI (RXF-631 renal): 53.5 µM
- TGI (A498 renal): > 90.6 µM
- TGI (KM20L2 colon): > 100 µM
- TGI (CAKI-1 renal): 41.6 µM
- TGI (DMS 114 small cell lung): 23.8 µM
- TGI (UO-31 renal): 34.5 µM
- TGI (SF-295 CNS): 51 µM
- TGI (RXF 393 renal): 25.3 µM
- TGI (NCI-H460 lung): > 100 µM
- TGI (HCC-2998 colon): > 100 µM
- TGI (KM12 colon): > 100 µM
- TGI (NCI-H23 lung): > 100 µM
- TGI (K-562 leukemia): 9.57 µM
- TGI (OVCAR-8 ovarian): 35 µM
- TGI (SNB-75 CNS): 42.6 µM
- TGI (EKVX NSCLC): 75.3 µM
- TGI (MDA-MB-435): > 100 µM
- TGI (IGROV1 ovarian): > 100 µM
- TGI (MALME-3M melanoma): 18 µM
- TGI (HCT-116 colon): 34.4 µM
- TGI (PC-3 prostate): > 100 µM
- TGI (DLD-1 colon): > 100 µM
- TGI (M19-MEL melanoma): 5.45 µM
- TGI (HT29 colon): > 100 µM
- TGI (SK-MEL-2 melanoma): > 46.5 µM
- TGI (U251 CNS): 43.5 µM
- TGI (SR leukemia): 56.5 µM
- TGI (M14 melanoma): 27.9 µM
- TGI (SN12C renal): 23.5 µM
- TGI (MCF7 breast): > 100 µM
- TGI (DU-145 prostate): > 100 µM
- TGI (HS 578T breast): > 100 µM
- TGI (T-47D breast): 47.8 µM
- TGI (SF-539 CNS): 31.5 µM
- TGI (CCRF-CEM leukemia): 26.8 µM
- TGI (SK-MEL-28 melanoma): 10.7 µM
- TGI (A549 NSCLC): > 100 µM
- TGI (OVCAR-4 ovarian): 51.2 µM
- TGI (LOX IMVI melanoma): > 52.2 µM
- TGI (LXFL 529 NSCLC): > 100 µM
- TGI (DMS 273 small cell lung): > 100 µM
- TGI (MDA-MB-231 breast): 8.09 µM
- TGI (COLO 205 colon): > 100 µM
- TGI (OVCAR-5 ovarian): 73.9 µM
- TGI (HOP-92 NSCLC): 25.6 µM
- TGI (OVCAR-3 ovarian): 75.2 µM
- TGI (BT-549 breast): 51 µM
- TGI (SNB-78 CNS): 48.5 µM
- TGI (MDA-N): 4.71 µM
- TGI (SW-620 colon): 44 µM
- TGI (ACHN renal): > 100 µM
- TGI (HOP-18 NSCLC): 41.5 µM
- TGI (NCI-H522 lung): 46.4 µM
- TGI (NCI-H226 lung): 44.7 µM
- TGI (SNB-19 CNS): > 100 µM
- TGI (HCT-15 colon): > 100 µM
- TGI (TK-10 renal): 57.2 µM
- TGI (SK-OV-3 ovarian): 72.5 µM
- TGI (SF-268 CNS): 13.1 µM
- TGI (786-0 renal): 56.6 µM
- TGI (HOP-62 NSCLC): 38.5 µM
- TGI (UACC-62 melanoma): 23.5 µM

— PubChem BioAssay (NCI)
